{Amino} = amino group added with ABI Aminolink 2 reagent, reacts with dyes such as Texas Red
tested on: not given; assay: not given; conditions: cited from earlier work

| Compound | pKa (first listed) | pKa (second listed) | pKa (third listed) |
| --- | --- | --- | --- |
| Cn1cncc1C[C@H](N)C(=O)O [1(π)-methylhistidine] | 1.64, | 6.46, | 8.61^3 |
| Cn1cnc(C[C@H](N)C(=O)O)c1 [3(τ)-methylhistidine] | 1.70, | 5.87, | 9.16^3 |
| NCCC(=O)O [β-Alanine] | – | 10.19 | – |

tested on: not listed separately; assay: Conductivity measurements of transport buffers; format: physicochemical; conditions: not given

| Average/Std. Deviation (conductivity) | Measurement 1 (conductivity) | Measurement 2 (conductivity) | Measurement 3 (conductivity) | Compound |
| --- | --- | --- | --- | --- |
| 1.01 +/− 0.045 mS/cm | 1.05 mS/cm | 960 μS/cm | 1.01 mS/cm | O=C([O-])CCC(=O)[O-].[Na+].[Na+] [5 mM NaSuccinate, NaSuccinate] |
| 572 +/− 10.5 μS/cm | 572 μS/cm | 562 μS/cm | 583 μS/cm | NC(CO)(CO)CO [10 mM TRIS, TRIS] |
| 9.7 +/− 0.71 μS/cm | 9.16 μS/cm | 9.44 μS/cm | 10.5 μS/cm | O=S(=O)(O)CCN1CCN(CCO)CC1 [25 mM HEPES, HEPES] |
| 22.7 +/− 5.09 μS/cm | 27.4 μS/cm | 17.3 μS/cm | 23.5 μS/cm | N[C@@H](CS)C(=O)O [250 mM Cysteine, Cysteine] |
| 128.7 +/− 7.0 μS/cm | 122 μS/cm | 128 μS/cm | 136 μS/cm | NaPO4 [1 mM NaPO4] |
| 1.44 +/− 0.04 mS/cm | 1.40 mS/cm | 1.44 mS/cm | 1.48 mS/cm | NaPO4 [10 mM NaPO4] |
| 2.90 +/− 0.11 mS/cm | 2.90 mS/cm | 2.79 mS/cm | 3.00 mS/cm | NaPO4 [20 mM NaPO4] |

Further lines, the compound ahead of its results:

| Compound | Average/Std. Deviation (conductivity) | Measurement 1 (conductivity) | Measurement 2 (conductivity) | Measurement 3 (conductivity) |
| --- | --- | --- | --- | --- |
| [Cl-].[Cl-].[Mg+2] [0.1 mM MgCl2, MgCl2] | 17.3 +/− 0.87 μS/cm | 16.9 μS/cm | 16.7 μS/cm | 18.3 μS/cm |
| [Cl-].[Na+] [0.1 mM NaCl, NaCl] | 9.43 +/− 0.93 μS/cm | 8.80 μS/cm | 8.98 μS/cm | 10.5 μS/cm |
| [Cl-].[Cl-].[Mg+2] [1 mM MgCl2, MgCl2] | 186 +/− 18.8 μS/cm | 174 μS/cm | 208 μS/cm | 177 μS/cm |
| [Cl-].[Na+] [1 mM NaCl, NaCl] | 112.7 +/− 2.08 μS/cm | 112 μS/cm | 115 μS/cm | 111 μS/cm |

same assay, conditions: 20 mM sodium phosphate

| Compound | conductance [mS/cm] |
| --- | --- |
| O=P(O)(O)O [NaPO4, Sodium Phosphate] | ~2.9 |

same assay, conditions: 250 mM cysteine solution, pH 4 to 6 range

| conductance [μS/cm] | Compound |
| --- | --- |
| ~23 | N[C@@H](CS)C(=O)O [Cysteine] |

tested on: not given; assay: not given; conditions: not told

| pH above the surface of the permeation layer | Compound |
| --- | --- |
| > 5 | N[C@@H](Cc1c[nH]cn1)C(=O)O [Histidine] |
| > 5 | c1c[nH]cn1 [imidazole] |

tested on: ET-10AL capture sequence; assay: Electronically controlled fluorescent DNA/dye (ethidium bromide) detection; format: binding; conditions: capture ET-10AL; peak EB fluorescence after positive bias 0.05 mA, 0.03 Volt-Hours
Experimental: Microcapillary test devices were prepared and hybridized as described in Example 2 and 3. Ethidium bromide (EB) was added to the buffer solution (˜0.05 mM EB final concentration) and the test devices were biased negative to concentrate EB (positively charged) at both the hybridized and un-hybridized microlocations. The test devices were observed by epifluorescece microscopy at 550 nm excitation and 600 nm emission.
The test devices were re-mounted biased positive
constant current at 0.05 mA for 0.03 Volt-Hours, to selectively remove the EB. Fluorescence at the un-hybridized microlocations diminished while the hybridized microlocations retained a very high level of EB fluorescence. The results are given below:
Fluorescent signal was measured using an ICCD imaging
camera system and represent peak fluorescent intensities. The signal to noise ratio would be more than 1000 fold if the entire fluorescent signal area was integrated.

| Compound | Normalized Signal |
| --- | --- |
| 5′-Amino-CCT GCT CAT GAG TCT CTC (CCTGCTCATGAGTCTCTC; DNA, 5' {Amino}, backbone not given here; further chemistry not fully specified) [ET-11AL] | >200 |
| 5′-Amino-TGCGAGCTGCAGTCAGACAT (TGCGAGCTGCAGTCAGACAT; DNA, 5' {Amino}, backbone not given here; further chemistry not fully specified) [ET-21A] | 1 |
